What all share (format): physicochemical
Data set [1] in a line: In vitro dissolution test of Drug 5 compositions in MFD solution. Also on record: AUC90: concentration or dose not given beside the values. The note with it: for AUC / Drug 5 Concentration: Table 27; for AUC / AUC90 / Cmax90: Drug 5, MFD solution; for Drug 5 Concentration: MFD solution; for AUC90 / Cmax90: 0 to 90 min. How it is done: (§1) For Control C2, the crystalline form of the drug alone was used without further processing. […] The tubes were placed in a 37° C. temperature-controlled bath, and 1.8 mL phosphate buffered saline (PBS) at pH 6.5 and 290 mOsm/kg was added to each. The samples were quickly mixed using a vortex mixer for about 60 seconds. The samples were centrifuged at 13,000 G at 37° C. for 1 minute. The resulting supernatant solutions were then sampled and diluted 1:6 (by volume) with methanol and then analyzed by high-performance liquid chromatography (HPLC). The contents of the tubes were mixed on the vortex mixer and allowed to stand undisturbed at 37° C. until the next sample was taken. Samples were collected at 4, 10, 20, 40, 90, and 1200 minutes.
In vitro dissolution tests were performed for Examples 28-29, using the procedure described in Example 4, with the following exceptions: 9 mg each of the dispersions of Examples 28-29 were added to separate respective centrifuge tubes. 1.8 mL of MFD solution was then added to each tube. For comparison, Control C12 was prepared consisting of 0.36 mg of crystalline Drug 5 added to 1.8 mL of MFD solution for a total theoretical concentration of 200 μg/mL if all of the drug dissolved. Drug 5 concentration in the samples was determined using HPLC. A Waters Symmetry C18 HPLC column was used with a mobile phase of 50 vol. % (0.3 vol. % glacial acetic acid, 0.2 vol. % TEA in water) and 50 vol. % acetonitrile. UV detection was measured at 260 nm.
(§2) In vitro dissolution tests were performed for Examples 35-38, using the procedures described in Example 4, with the following exceptions: 14.4 mg each of Example 35 and 36 were added to separate respective test tubes to which 1.8 mL of PBS solution was added, so that the total theoretical Drug 4 concentration was approximately 200 μg/mL if all of Drug 4 were to dissolve completely; 3.6 mg each of Examples 37 and 38 were added in separate respective test tubes to 1.8 mL of MFD solution, to provide a total theoretical Drug 5 concentration of approximately 20 μg/mL if all of Drug 5 were to dissolve completely. Drug 4 concentration in the samples was determined as in Example 33. Drug 5 concentration in the samples was determined as in Example 34.

Data set [2] can be described thus: In vitro dissolution test of Drug 2 compositions in MFD solution. Also on record: AUC / AUC90: concentration or dose not given beside the values. The note with it: for Drug 2: MFD solution, 37° C. How it is done:
as §1
This example measures' the concentration-enhancing properties of the PVP dispersion of Example 14. Dissolution tests were performed, as described in Example 4 with the following exceptions: the PBS solution contained 7.3 mM sodium taurocholic acid and 1.4 mM 1-palmitoyl-2-oleyl-sn-glycero-3-phosphocholine (model fasted duodenal (MFD) solution). 1.8 mg of dispersion was added to 1.8 mL of test media. For Control C6, 0.18 mg of the crystalline form of the Drug 2 alone was used without further processing and added to 1.8 mL of MFD solution.

Data set [3] in a line: In vitro dissolution test of Drug 3 compositions in MFD solution. Also on record: AUC / AUC90: concentration or dose not given beside the values. Particulars: for Drug 3: MFD solution, 37° C. How it is done:
as §1
Dissolution tests were performed, as described in Example 4 with the following exceptions: samples were tested in MFD Solution, and 1.8 mg of dispersion was added to 1.8 mLs of MFD Solution. Control C9 was simply 0.18 mg of the crystalline Drug 3 alone add to 1.8 mL of MFD solution.

The nature of data set [4]: In vitro dissolution test of Drug 4 compositions in PBS. Particulars: for AUC / [Drug 4]: Table 25; for AUC / AUC90 / Cmax90: Drug 4, PBS; for [Drug 4]: PBS; for AUC90 / Cmax90: 0 to 90 min. How it is done:
as §1
In vitro dissolution tests were performed for Examples 25-27 using the procedure described in Example 4, with the following exceptions: 14.4 mg each of the dispersions of Examples 25-27 were added to separate, respective centrifuge tubes. 1.8 mL PBS was added to each tube. For comparison, Control C11 was prepared consisting of 3.6 mg of crystalline Drug 4 added to 1.8 mL PBS. Drug 4 concentration in the samples was determined using HPLC. A Zorbax SB C18 HPLC column was used with a mobile phase of 35 vol. % water and 65 vol. % methanol. UV detection was measured at 297 nm.
as §2

The mark [5] stands for this setting: Drug 2, MFD solution, 0 to 90 min.
Where [6] appears, read: Drug 3, MFD solution, 0 to 90 min.

As for `NC(=O)N(O)C1C=C(c2cccc(Oc3ccc(F)cc3)c2)CC1` (single isomer, unassigned; (+)) [Example C12, (+)-N-{3-[3-(4-fluorophenoxy)phenyl]-2-cyclopenten-1-yl}-N-hydroxyurea], the AUC was 0 µg·min/mL in data set [1] (time 0 min); 0 µg·min/mL in data set [1] (time 4 min); 100 µg·min/mL in data set [1] (time 10 min); 300 µg·min/mL in data set [1] (time 20 min); 800 µg·min/mL in data set [1] (time 40 min); 2,200 min*μg/mL in data set [1] (time 90 min). Also, the AUC in data set [1] (time 1200 min) is reported as 43,300 min*μg/mL. Also, the “Drug 5 Concentration” value in data set [1] (time 0 min) turned out to be 0 µg/mL; in data set [1] (time 4 min), 9 µg/mL; in data set [1] (time 10 min), 15 µg/mL; in data set [1] (time 20 min), 21 µg/mL; in data set [1] (time 40 min) it was 27 µg/mL; in data set [1] (time 90 min), 32 µg/mL. In addition, the “Drug 5 Concentration” value in data set [1] (time 1200 min) was determined as 42 µg/mL. Further, the AUC90 in data set [1] (Table 28) is reported as 2,200 min*μg/mL; in data set [1] (Table 32, in min·µg/mL), 2,200. Further, the Cmax90 in data set [1] (Table 28) and in data set [1] (Table 32) was 32000 ng/mL each time.

With `O=C(NC(Cc1ccccc1)C(O)CC(C(=O)NO)C1CCC(F)(F)CC1)c1cnc2ccccc2n1` (stereo not shown) [Example C6, quinoxaline-2-carboxylic acid [1-benzyl-4-(4,4-difluoro-cyclohexyl)-2-hydroxy-4-hydroxycarbamoyl-butyl]-amide], the AUC90 in data set [2] (setting [5]) was determined as 400 µg·min/mL. Further, the Cmax90 in data set [2] (setting [5]) turned out to be 7000 ng/mL. Further, the AUC in data set [2] (Drug 2, MFD solution, time 0 min) was determined as 0 min*µg/mL; in data set [2] (Drug 2, MFD solution, time 4 min), 0 min*µg/mL; in data set [2] (Drug 2, MFD solution, time 10 min), 0 min*µg/mL; in data set [2] (Drug 2, MFD solution, time 20 min) it was 100 min*µg/mL; in data set [2] (Drug 2, MFD solution, time 40 min) it was 100 min*µg/mL; in data set [2] (Drug 2, MFD solution, time 90 min), 400 min*µg/mL. Moreover, the “Drug 2” value in data set [2] (time 0 min) turned out to be 0 µg/mL; in data set [2] (time 4 min) it was 2 µg/mL; in data set [2] (time 10 min), 4 µg/mL; in data set [2] (time 20 min), 4 µg/mL; in data set [2] (time 40 min), 4 µg/mL; in data set [2] (time 90 min), 7 µg/mL.

For the molecule `O=C(NC(Cc1ccccc1)C(O)CC(C(=O)NO)C1(O)CCC(F)(F)CC1)c1cnc2ccccc2n1` (stereo not shown) [Example C9, quinoxaline-2-carboxylic acid [1-benzyl-4-(4,4-difluoro-1-hydroxy-cyclohexyl)-2-hydroxy-4-hydroxycarbamoyl-butyl]-amide], in data set [3] (setting [6]), the AUC90 turned out to be 900 µg·min/mL. In data set [3] (setting [6]), this molecule came in with a Cmax90 of 13000 ng/mL. Moreover, the AUC in data set [3] (Drug 3, MFD solution, time 0 min) is given as 0 min*µg/mL; in data set [3] (Drug 3, MFD solution, time 4 min) it was 0 min*µg/mL; in data set [3] (Drug 3, MFD solution, time 10 min), 0 min*µg/mL; in data set [3] (Drug 3, MFD solution, time 20 min), 100 min*µg/mL; in data set [3] (Drug 3, MFD solution, time 40 min) it was 300 min*µg/mL; in data set [3] (Drug 3, MFD solution, time 90 min) it was 900 min*µg/mL. Besides, the “Drug 3” value in data set [3] (time 0 min) stood at 0 µg/mL; in data set [3] (time 4 min), 4 µg/mL; in data set [3] (time 10 min) it was 6 µg/mL; in data set [3] (time 20 min), 8 µg/mL; in data set [3] (time 40 min), 11 µg/mL; in data set [3] (time 90 min), 13 µg/mL.

Consider `O=C(N[C@@H](Cc1ccccc1)[C@@H](O)C(=O)N1C[C@@H](O)[C@@H](O)C1)c1cc2cc(Cl)ccc2[nH]1` [Example C11, 5-chloro-1H-indole-2-carboxylic acid [(1S)-benzyl-3-((3R,4S)-dihydroxypyrrolidin-1-yl)-(2R)-hydroxy-3-oxypropyl]amide], for which the AUC in data set [4] (time 0 min) is 0 µg·min/mL; in data set [4] (time 4 min), 300 µg·min/mL; in data set [4] (time 10 min), 1,000 min*μg/mL; in data set [4] (time 20 min) it was 2,200 min*μg/mL; in data set [4] (time 40 min) it was 4,500 min*μg/mL; in data set [4] (time 90 min) it was 10,300 min*μg/mL. For the same molecule, the AUC in data set [4] (time 1200 min) is listed as 120,200 min*μg/mL. Besides, the “[Drug 4]” value turned out to be 0 µg/mL in data set [4] (time 0 min); 131 µg/mL in data set [4] (time 4 min); 114 µg/mL in data set [4] (time 10 min); 124 µg/mL in data set [4] (time 20 min); 107 µg/mL in data set [4] (time 40 min); 126 µg/mL in data set [4] (time 90 min). Further, in data set [4] (time 1200 min), the “[Drug 4]” value was determined as 72 µg/mL. For the same molecule, the AUC90 in data set [4] (Table 26) is recorded as 10,300 min*μg/mL; in data set [4] (Table 31, in min·µg/mL) it was 10,300. Besides, the Cmax90 in data set [4] (Table 26) and in data set [4] (Table 31) was 131000 ng/mL throughout.

The record behind these values is patent publication US9468604B2, “Pharmaceutical compositions of dispersions of drug and neutral polymers” (Bend Research, Inc., priority 2001, dated 2016).
